Measured values as given in publication PMC8138313, “Identification, Selection and Immune Assessment of Liver Stage CD8 T Cell Epitopes From Plasmodium falciparum” (Frontiers in Immunology, 2021).
Where a SMILES comes first, the peptide text is derived from it.

Assays:
Assay in all cases: HLA class I binding assay (cell-free competition, fluorescence polarization)
HLA B*0702 = HLA B*0702 (Homo sapiens, UniProt P01889)
HLA A*0201 = HLA A*0201 (Homo sapiens, UniProt P04439, D140Y/D185E/D98H/E176V/E277Q/G131W/G231S/I119V/I121R/I166T/I218V/L300P/L318F/N151K/N90K/P208A/P217A/Q86G/Q94H/R138H/R169H/T345S)
HLA B*4402 = HLA B*4402 (Homo sapiens, UniProt P01889, A223V/A65T/A93T/A95T/D201E/D98Y/E176V/E187L/E204Q/E69K/G107R/H137Y/K202T/L105A/L119I/N104T/N87E/Q56L/Q94N/R106L/R155S/R180D/S101N/S121R/S35A/S48T/T118I/V36M/W191S/Y140D/Y91S)
HLA A*2402 = HLA A*2402 (Homo sapiens, UniProt P04439, D101N/D140Y/D185E/E176V/E190D/F33S/G103R/G107R/I119L/I121M/I306V/K335N/L105A/L180Q/L300P/N151K/N90K/Q86E/Q94H/R106L/R138H/R89G/T104I/T345S/V100E/W191G/Y123F)
HLA A*0301 = HLA A*0301 (Homo sapiens, UniProt P04439)

## CC[C@H](C)[C@H](NC(=O)[C@H](CC(N)=O)NC(=O)[C@H](CCCCN)NC(=O)[C@H](CCCCN)NC(=O)[C@H](CCCCN)NC(=O)[C@H](CC(C)C)NC(=O)[C@@H](N)Cc1ccccc1)C(=O)N[C@H](C(=O)N[C@@H](CC(C)C)C(=O)O)[C@@H](C)O (H-FLKKKNITL-OH)
HLA B*0702
  IC50: 25.4 µM
HLA A*0201
  IC50: 5.34 µM

## CC(C)C[C@H](NC(=O)[C@H](Cc1ccccc1)NC(=O)[C@@H]1CCCN1C(=O)[C@@H](N)Cc1c[nH]cn1)C(=O)N[C@@H](CCCCN)C(=O)N[C@@H](CO)C(=O)NCC(=O)N[C@@H](Cc1ccccc1)C(=O)N[C@H](C(=O)N[C@@H](Cc1ccccc1)C(=O)O)[C@@H](C)O (H-HPFLKSGFTF-OH)
HLA B*0702
  IC50: 0.226 µM
HLA B*4402
  IC50: > 1000 µM
HLA A*2402
  IC50: 10.5 µM

## CC[C@H](C)[C@H](NC(=O)[C@H](CO)NC(=O)[C@H](CCCCN)NC(=O)[C@H](CO)NC(=O)[C@H](CC(N)=O)NC(=O)[C@@H](NC(=O)[C@H](CO)NC(=O)[C@H](Cc1ccc(O)cc1)NC(=O)[C@H](CC(C)C)NC(=O)[C@@H](N)CCCCN)[C@@H](C)CC)C(=O)O (H-KLYSINSKSI-OH)
HLA B*0702
  IC50: 225 µM
HLA A*0201
  IC50: 57.7 µM

## CC[C@H](C)[C@H](NC(=O)[C@@H](N)CO)C(=O)N[C@@H](C)C(=O)N[C@@H](CO)C(=O)N[C@@H](CCCCN)C(=O)N[C@@H](CC(N)=O)C(=O)N[C@@H](CC(C)C)C(=O)N[C@@H](CCSC)C(=O)N[C@@H](Cc1c[nH]c2ccccc12)C(=O)N[C@H](C(=O)O)C(C)C (H-SIASKNLMWV-OH)
HLA B*0702
  IC50: > 1000 µM
HLA A*0201
  IC50: 284 µM
HLA A*0301
  IC50: > 1000 µM

## CSCC[C@H](NC(=O)[C@H](CCC(=O)O)NC(=O)[C@@H](N)[C@@H](C)O)C(=O)N[C@@H](Cc1ccccc1)C(=O)N[C@@H](CCCCN)C(=O)N[C@@H](CC(C)C)C(=O)N[C@@H](CCCNC(=N)N)C(=O)N[C@@H](CC(C)C)C(=O)N[C@@H](CC(N)=O)C(=O)N[C@@H](CC(C)C)C(=O)O (H-TEMFKLRLNL-OH)
HLA B*0702
  IC50: > 1000 µM
HLA B*4402
  IC50: 54.8 µM
HLA A*2402
  IC50: 58.2 µM

## CC[C@H](C)[C@H](NC(=O)[C@@H](N)[C@@H](C)O)C(=O)N[C@@H](Cc1ccc(O)cc1)C(=O)NCC(=O)N[C@@H](CCCCN)C(=O)NCC(=O)NCC(=O)N[C@@H](Cc1ccccc1)C(=O)N[C@@H](CCC(N)=O)C(=O)N[C@@H](Cc1ccccc1)C(=O)O (H-TIYGKGGFQF-OH)
HLA B*0702
  IC50: 109 µM

## CC[C@H](C)[C@H](NC(=O)[C@@H]1CCCN1C(=O)[C@@H](N)Cc1ccc(O)cc1)C(=O)N[C@@H](CCC(=O)O)C(=O)N[C@@H](CCCCN)C(=O)N[C@@H](CC(C)C)C(=O)NCC(=O)N[C@@H](Cc1c[nH]cn1)C(=O)N[C@H](C(=O)O)C(C)C (H-YPIEKLGHV-OH)
HLA B*0702
  IC50: 0.257 µM

## CC(C)C[C@H](NC(=O)[C@H](C)NC(=O)[C@H](CC(=O)O)NC(=O)[C@H](Cc1ccccc1)NC(=O)[C@@H](NC(=O)[C@H](CC(N)=O)NC(=O)[C@@H]1CCCN1C(=O)[C@@H]1CCCN1C(=O)[C@@H](N)Cc1ccccc1)[C@@H](C)O)C(=O)O [FPPNTFDAL] (H-FPPNTFDAL-OH)
HLA B*0702
  IC50: 2.72 µM

## CC(C)C[C@H](NC(=O)[C@H](C)NC(=O)[C@H](CO)NC(=O)[C@@H](NC(=O)[C@H](CCCCN)NC(=O)[C@H](CC(=O)O)NC(=O)[C@H](CCCNC(=N)N)NC(=O)[C@H](CS)NC(=O)[C@@H](N)Cc1c[nH]cn1)[C@@H](C)O)C(=O)O [HCRDKTSAL] (H-HCRDKTSAL-OH)
HLA B*0702
  IC50: 28.6 µM
